Consider eleven molecules from patent publication US20200165291A1, “NEUROACTIVE STEROIDS, COMPOSITIONS, AND USES THEREOF” (Sage Therapeutics, Inc., priority 2014, published 2020).

Each structure is given as a SMILES string.

One may read the minimal effective dose as the lowest level tested that produced the effect sought.

The target in experiment [1] is T1, recombinant α1β2γ2 GABAA receptors (Homo sapiens, UniProt P14867+P47870).
T1 construct: expressed in transfected cells
Kind of experiment: Patch clamp electrophysiology, QPatch, LTK cells. The format is cell-based. The note with it: 10 μM test article, GABA EC20 = 2 μM, read-out: GABA (α1β2γ2) Qpatch in Ltk, % efficacy at 10 μM.

Experiment [2] concerns the target T2, recombinant α4β3δ GABAA receptors (Homo sapiens, UniProt P28472+P48169).
T2 construct: expressed in transfected cells; host or cells: CHO cells (transient transfection, Lipofectamine)
Kind of experiment: Patch clamp electrophysiology, manual patch, CHO cells. The format is cell-based. The conditions noted are these: 10 μM test article, GABA EC20 = 2 μM, read-out: GABA (α4β3δ) Manual patch in CHO, % efficacy at 10 μM. Background: The patch-clamp technique gives a direct electrical read-out from membranes.

In another experiment the test system is male Sprague Dawley rats. Kind of experiment: Loss of righting reflex in rats. The format is in vivo. The conditions noted are these: Rat IV, 5 mpk. The method, then: Loss of Righting Reflex in Rats
The plasma pharmacokinetics and a qualitative assessment of sedation were obtained in male Sprague Dawley rats according to the following procedure. Rats were dosed by intravenous bolus dose (60 seconds) via the foot dorsal vein at doses ranging from 5 to 15 mg/kg in an appropriate vehicle. In order to assess sedation, rats were gently restrained by hand to a lateral position for dose administration. […] If the animal was unable to return to an upright position, the time was recorded as the onset of loss of righting reflex (LRR). […] Sluggish or incomplete righting twice consecutively within a 30 second interval qualifies as a loss of righting reflex. After onset of LRR, animals were assessed every 5 minutes in the same manner. Recovery of righting reflex is defined as the ability of a rat to right itself completely within 20 seconds of being placed in dorsal recumbency. The duration of LRR is defined as the time interval between LRR and the return of righting reflex.

Experiment [3] deals with PTZ-treated male CD-1 mice. Kind of experiment: Acute PTZ (pentylenetetrazol-induced seizure) method in mice. The class given is in vivo. The note with it: Mus musculus, PO (oral administration), latency to tonic seizures, read-out: Anticonvulsive Effect Dose (minimal effective anticonvulsant dose). The method, then:
The anticonvulsant effect of test compounds were assessed in the pentylenetetazol-induced seizure assay in mice similar to methods described in Giardina & Gasior (2009) Curr Protoc Pharmacol., Chapter 5. Male CD-1 mice were housed in groups of five under controlled conditions (temperature of 22±2° C. and 12:12 light-dark cycle, lights on at 8:00 am) and water and food were available ad libitum. The mice were housed for 1 week prior to behavioral testing, at which time they weighed 25-35 g. Pentylenetetrazol (PTZ, Sigma) was dissolved in sterile 0.9% saline at a concentration of 12 mg/mL concentration for subcutaneous administration. Test compounds were formulated and administered via oral gavage or intraperitoneal injection at a predetermined time-point (typically 30 or 60 minutes) prior to PTZ injection. All solutions were made fresh and were given in a volume of 10 ml/kg body weight.
Mice were acclimated to the test room for at least 30 min before compound administration. Mice were randomized into at least four test groups (vehicle and at least three doses of the test compound) with 10 mice per group. […] Following the drug pretreatment time the mice were injected s.c. with PTZ (120 mg/kg). Immediately following the PTZ injection, mice were individually placed into observation chambers (25×15×15 cm) and a three-channel timer was started. Each mouse was continuously observed for 30 min and the following behaviors were recorded by observers blinded to the treatments: 1) latency to clonic convulsions that persist for 3 sec and followed by an absence of righting reflex 2) latency to tonic convulsions, characterized by the rigid extension of all four limbs that exceeded a 90 degree angle with the body 3) latency to death 4) number of clonic and tonic convulsions. Data are presented as mean±S.E.M and one-way analysis of variance with Dunnett's or Bonferroni's post-hoc test was used to detect significant differences in latency and number between the vehicle and dose group. p values<0.05 were regarded as statistically significant.

Experiment [4] concerns the target [35S]-TBPS binding, rat brain cortical membranes (GABA receptor complex). The experiment in a line: [35S]-TBPS binding (steroid inhibition of TBPS binding). The conditions noted are these: in the presence of 5 μM GABA, read-out: 35S-TBPS Radioligand Displacement. As for the experimental part:
[35S]-t-Butylbicyclophosphorothionate (TBPS) binding assays using rat brain cortical membranes in the presence of 5 μM GABA has been described (Gee et al, J. Pharmacol. Exp. Ther. 1987, 241, 346-353; Hawkinson et al, Mol. Pharmacol. 1994, 46, 977-985; Lewin, A. H et al., Mol. Pharmacol. 1989, 35, 189-194).
Briefly, cortices are rapidly removed following decapitation of carbon dioxide-anesthetized Sprague-Dawley rats (200-250 g). The cortices are homogenized in 10 volumes of ice-cold 0.32 M sucrose using a glass/teflon homogenizer and centrifuged at 1500×g for 10 min at 4° C. The resultant supernatants are centrifuged at 10,000×g for 20 min at 4° C. to obtain the P2 pellets. The P2 pellets are resuspended in 200 mM NaCl/50 mM Na-K phosphate pH 7.4 buffer and centrifuged at 10,000×g for 10 min at 4° C. This washing procedure is repeated twice and the pellets are resuspended in 10 volumes of buffer. Aliquots (100 μL) of the membrane suspensions are incubated with 3 nM [^35S]-TBPS and 5 μL aliquots of test drug dissolved in dimethyl sulfoxide (DMSO) (final 0.5%) in the presence of 5 μM GABA. The incubation is brought to a final volume of 1.0 mL with buffer. Nonspecific binding is determined in the presence of 2 μM unlabeled TBPS and ranged from 15 to 25%. Following a 90 min incubation at room temp, the assays are terminated by filtration through glass fiber filters (Schleicher and Schuell No. 32) using a cell harvester (Brandel) and rinsed three times with ice-cold buffer. Filter bound radioactivity is measured by liquid scintillation spectrometry. Non-linear curve fitting of the overall data for each drug averaged for each concentration is done using Prism (GraphPad). […] The concentration of test compound producing 50% inhibition (IC50) of specific binding and the maximal extent of inhibition (Imax) are determined for the individual experiments with the same model used for the overall data and then the means±SEM.s of the individual experiments are calculated.
Various compounds are or can be screened to determine their potential as modulators of [^35S]-TBPS binding in vitro. These assays are or can be performed in accordance with the above discussed procedures.
A general note: Loss of bound radioactivity is the signal in a displacement assay; it reports binding, not function.

T1 sequence (P14867 28-456): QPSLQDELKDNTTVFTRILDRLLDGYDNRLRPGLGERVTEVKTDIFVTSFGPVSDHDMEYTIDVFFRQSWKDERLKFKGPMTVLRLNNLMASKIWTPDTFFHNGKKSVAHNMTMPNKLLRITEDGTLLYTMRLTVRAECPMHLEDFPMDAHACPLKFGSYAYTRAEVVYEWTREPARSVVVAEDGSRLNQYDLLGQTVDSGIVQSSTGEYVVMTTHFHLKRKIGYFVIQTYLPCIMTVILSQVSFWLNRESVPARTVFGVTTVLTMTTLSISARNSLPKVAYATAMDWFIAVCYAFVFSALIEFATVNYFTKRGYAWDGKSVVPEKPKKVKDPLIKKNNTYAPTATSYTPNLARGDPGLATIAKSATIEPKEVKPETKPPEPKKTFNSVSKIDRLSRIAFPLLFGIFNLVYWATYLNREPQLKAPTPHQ
T1 sequence (P47870 25-512 limits assumed): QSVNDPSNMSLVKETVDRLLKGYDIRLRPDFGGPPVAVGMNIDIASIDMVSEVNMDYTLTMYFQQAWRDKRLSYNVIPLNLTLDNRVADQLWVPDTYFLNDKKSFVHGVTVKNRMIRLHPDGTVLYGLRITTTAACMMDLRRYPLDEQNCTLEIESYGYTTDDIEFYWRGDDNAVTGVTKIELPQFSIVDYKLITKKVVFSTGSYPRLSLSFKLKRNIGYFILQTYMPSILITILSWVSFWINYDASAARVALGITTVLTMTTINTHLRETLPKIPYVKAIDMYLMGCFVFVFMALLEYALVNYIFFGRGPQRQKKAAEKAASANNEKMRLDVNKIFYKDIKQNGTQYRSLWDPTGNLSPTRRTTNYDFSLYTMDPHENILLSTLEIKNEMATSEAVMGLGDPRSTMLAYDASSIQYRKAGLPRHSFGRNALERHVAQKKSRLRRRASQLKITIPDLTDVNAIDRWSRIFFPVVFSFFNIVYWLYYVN
T1 sequence (P18507 40-475 partner): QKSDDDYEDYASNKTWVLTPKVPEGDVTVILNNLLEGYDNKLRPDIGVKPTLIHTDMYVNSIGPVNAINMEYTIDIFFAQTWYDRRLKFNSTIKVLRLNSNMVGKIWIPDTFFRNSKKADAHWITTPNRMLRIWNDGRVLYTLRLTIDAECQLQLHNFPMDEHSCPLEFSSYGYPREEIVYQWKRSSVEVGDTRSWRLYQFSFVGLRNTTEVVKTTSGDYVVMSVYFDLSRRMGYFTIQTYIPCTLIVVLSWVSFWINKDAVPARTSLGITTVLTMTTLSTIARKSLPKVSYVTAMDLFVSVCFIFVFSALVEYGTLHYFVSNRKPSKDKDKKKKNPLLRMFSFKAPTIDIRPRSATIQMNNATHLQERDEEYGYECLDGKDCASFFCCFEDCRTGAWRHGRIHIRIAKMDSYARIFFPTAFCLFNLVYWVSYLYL
T2 sequence (P48169 36-554): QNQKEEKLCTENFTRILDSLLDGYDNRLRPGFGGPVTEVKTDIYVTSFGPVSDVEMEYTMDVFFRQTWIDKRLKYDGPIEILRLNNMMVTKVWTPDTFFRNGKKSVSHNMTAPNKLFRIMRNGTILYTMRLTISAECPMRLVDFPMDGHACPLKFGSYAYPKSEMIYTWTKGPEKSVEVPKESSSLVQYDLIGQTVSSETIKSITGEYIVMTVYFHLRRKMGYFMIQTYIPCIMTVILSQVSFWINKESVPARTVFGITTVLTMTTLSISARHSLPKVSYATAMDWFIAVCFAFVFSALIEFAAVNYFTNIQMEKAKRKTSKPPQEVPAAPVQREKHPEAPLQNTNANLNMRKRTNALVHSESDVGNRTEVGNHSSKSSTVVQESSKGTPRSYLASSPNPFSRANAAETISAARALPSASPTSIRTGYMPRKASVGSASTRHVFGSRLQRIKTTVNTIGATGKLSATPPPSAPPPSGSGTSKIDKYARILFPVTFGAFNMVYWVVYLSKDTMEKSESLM
T2 sequence (P28472 26-473): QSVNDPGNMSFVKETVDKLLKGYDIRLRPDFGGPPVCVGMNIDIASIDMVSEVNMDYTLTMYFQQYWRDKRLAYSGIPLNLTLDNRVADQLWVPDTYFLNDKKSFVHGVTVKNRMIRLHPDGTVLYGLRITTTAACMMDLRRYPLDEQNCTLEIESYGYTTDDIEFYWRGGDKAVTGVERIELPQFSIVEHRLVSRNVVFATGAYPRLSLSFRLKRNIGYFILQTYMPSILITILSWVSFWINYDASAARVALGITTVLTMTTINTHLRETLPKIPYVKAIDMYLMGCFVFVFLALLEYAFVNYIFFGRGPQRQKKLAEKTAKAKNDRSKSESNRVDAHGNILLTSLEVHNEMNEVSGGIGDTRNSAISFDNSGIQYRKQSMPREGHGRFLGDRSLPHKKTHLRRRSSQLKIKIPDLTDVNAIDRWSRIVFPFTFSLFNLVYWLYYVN
T2 sequence (O14764 17-452 partner limits assumed): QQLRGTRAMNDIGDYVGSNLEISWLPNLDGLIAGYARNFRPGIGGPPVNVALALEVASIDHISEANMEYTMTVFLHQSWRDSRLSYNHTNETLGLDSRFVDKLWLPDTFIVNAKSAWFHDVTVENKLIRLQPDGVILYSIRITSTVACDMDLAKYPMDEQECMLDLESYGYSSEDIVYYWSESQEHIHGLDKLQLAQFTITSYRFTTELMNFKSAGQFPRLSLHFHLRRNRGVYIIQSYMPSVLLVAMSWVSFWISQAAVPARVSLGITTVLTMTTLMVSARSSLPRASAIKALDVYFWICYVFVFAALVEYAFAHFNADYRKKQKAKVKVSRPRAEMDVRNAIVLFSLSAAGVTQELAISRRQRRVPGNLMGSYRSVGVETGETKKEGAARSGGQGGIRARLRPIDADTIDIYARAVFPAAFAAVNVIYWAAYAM

For the molecule `Cc1nnn(CC(=O)[C@H]2CC[C@H]3[C@@H]4CC[C@H]5C[C@](C)(O)CC[C@@H]5[C@H]4CC[C@]23C)n1` [SB-5], the Emax at 10 µM is 100 to 500% in experiment [1] and over 500% in experiment [2]. In addition, in the experiment on male Sprague Dawley rats, the “Duration of Rat LRR” value is on record as “B (B > 20 min)”. For the same molecule, in experiment [3], the minimal effective dose was at most 1 mg/kg.
In the case of `C[C@@]1(O)CC[C@@H]2[C@H]3CC[C@]4(C)[C@@H](C(=O)Cn5nccn5)CC[C@H]4[C@@H]3C[C@@H](F)[C@H]2C1` [SV-2], the IC50 in experiment [4] was in the range of 0.05 to 0.1 µM. For the same molecule, the Emax at 10 µM in experiment [1] and in experiment [2] was 100 to 500% throughout. For the same molecule, the “Duration of Rat LRR” value in the experiment on male Sprague Dawley rats is given as “B (B > 20 min)”. In experiment [3], the minimal effective dose is at most 1 mg/kg.
As to `Cc1cnn(CC(=O)[C@H]2CC[C@H]3[C@@H]4CC[C@@H]5C[C@](C)(O)CC[C@@H]5[C@H]4CC[C@]23C)n1` [SA-3], in experiment [4], the IC50 lay in the range of 0.001 to 0.05 µM. In addition, the Emax at 10 µM is 100 to 500% in experiment [1] and over 500% in experiment [2]. Further, the “Duration of Rat LRR” value with male Sprague Dawley rats is “B (B > 20 min)”.
Consider `COC[C@@]1(O)CC[C@H]2[C@@H](CC[C@@H]3[C@@H]2CC[C@]2(C)[C@@H](C(=O)Cn4nnc(C)n4)CC[C@@H]32)C1` [SI-4], for which the Emax at 10 µM in experiment [1] and in experiment [2] was 100 to 500% each time. The “Duration of Rat LRR” value in the experiment on male Sprague Dawley rats is reported as “B (B > 20 min)”. Further, the minimal effective dose in experiment [3] was at most 1 mg/kg.
With `CC[C@@]1(O)CC[C@H]2[C@H](CC[C@@H]3[C@@H]2CC[C@]2(C)[C@@H](C(=O)Cn4nccn4)CC[C@@H]32)C1` [SE-4], in experiment [4], the IC50 fell in the range of 0.05 to 0.1 µM. In addition, the results for the Emax at 10 µM in experiment [1] and in experiment [2] were 100 to 500% and over 500%, respectively. Besides, the “Duration of Rat LRR” value in the experiment on male Sprague Dawley rats is “A (A ≤ 20 min)”.
Take `Cc1nnn(CC(=O)[C@H]2CC[C@H]3[C@@H]4CC[C@@H]5C[C@](C)(O)CC[C@@H]5[C@H]4CC[C@]23C)n1` [SA-7]: the IC50 in experiment [4] lay in the range of 0.001 to 0.05 µM. The Emax at 10 µM in experiment [1] and in experiment [2] was over 500% throughout. For the same molecule, the “Duration of Rat LRR” value in the experiment with male Sprague Dawley rats is on record as “B (B > 20 min)”. Moreover, the minimal effective dose in experiment [3] was at most 1 mg/kg.
For the molecule `C[C@@]1(O)CC[C@@H]2[C@H]3CC[C@]4(C)[C@@H](C(=O)Cn5ncnn5)CC[C@H]4[C@@H]3C[C@@H](F)[C@H]2C1` [SV-3], the Emax at 10 µM in experiment [1] was 100 to 500%; in experiment [2], over 500%. Also, in the experiment on male Sprague Dawley rats, the “Duration of Rat LRR” value was “A (A ≤ 20 min)”.
Consider `Cc1nnn(CC(=O)[C@H]2CC[C@H]3[C@@H]4CC[C@@H]5C[C@@](O)(CF)CC[C@@H]5[C@H]4CC[C@]23C)n1` [SF-3], for which the Emax at 10 µM in experiment [1] and in experiment [2] was 100 to 500% each time. Also, the “Duration of Rat LRR” value with male Sprague Dawley rats is reported as “A (A ≤ 20 min)”. Also, the minimal effective dose in experiment [3] was at most 1 mg/kg.
Take `Cc1nnn(CC(=O)[C@H]2CC[C@H]3[C@@H]4C[C@@H](F)[C@H]5C[C@](C)(O)CC[C@@H]5[C@H]4CC[C@]23C)n1` [SV-5]: the Emax at 10 µM in experiment [1] and in experiment [2] was 100 to 500% each time. Moreover, the “Duration of Rat LRR” value with male Sprague Dawley rats is on record as “B (B > 20 min)”. For the same molecule, in experiment [3], the minimal effective dose is at most 1 mg/kg.
Turning to `COC[C@@]1(O)CC[C@H]2[C@@H](CC[C@@H]3[C@@H]2CC[C@]2(C)[C@@H](C(=O)Cn4ccnn4)CC[C@@H]32)C1` [SI-2], the IC50 in experiment [4] was 0.1 to 0.5 µM. In addition, the Emax at 10 µM in experiment [1] was 100 to 500%; in experiment [2], over 500%. The minimal effective dose in experiment [3] was in the range of 1 to 3 mg/kg.
For `COC[C@@]1(O)CC[C@H]2[C@@H](CC[C@@H]3[C@@H]2CC[C@]2(C)[C@@H](C(=O)Cn4cnnn4)CC[C@@H]32)C1` [SI-1], in experiment [4], the IC50 lay in the range of 0.1 to 0.5 µM. For the same molecule, the results for the Emax at 10 µM in experiment [1] and in experiment [2] were 100 to 500% and over 500%, respectively. In experiment [3], the minimal effective dose is 1 to 3 mg/kg.
